# Earlier results, collected in patent publication US20180369129A1, “MICROBIOME-COMPATIBLE COSMETICS” (AOBIOME LLC, priority 2015, published 2018).
# Legend:
# NOS [1] = settings: rat pancreatic islets; through the induction of iNOS
# NOS [2] = settings: reduction in basal NO levels
smiles,measurement,setting,value
COC(=O)[C@@H](N)CCCNC(=N)N[N+](=O)[O-] [L-NAME],total NO production,NOS [1],increases total NO production
same,effect of chronic inhibition of NOS on heart and kidneys,NOS [2],generalized fibrosis of the heart and kidneys
